# The supplement of paper PMC10307832
# What was measured:
# Experiment in all cases: relative viability (nuclei count vs DMSO), 5 days (fraction); higher = more cells survive
# [1] = compound: C1=CC2=C(C=C(C(=C2N=C1)O)N=NC3=CC4=C(C=C3)C=C(C=C4)S(=O)(=O)O)S(=O)(=O)O + C[C@]1(O)C[C@@H](c2nc(-c3ccc4ccc(-c5ccccc5)nc4c3)c3c(N)nccn32)C1 [Linsitinib] (partner 1 µM)
# In short: (§1)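 Each reported value is a median over duplicate plates. It expresses relative viability: treated-well nuclei count divided by vehicle-well nuclei count. Lung cancer cell lines in 1536-well plates were dosed by pin tool a day after seeding, alone with one drug or with a fixed anchor-drug dose plus five library-drug doses (not always all listed) in √10 steps, and nuclei were counted after 5 days.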
# [2] = compound: C1=CC2=C(C=C(C(=C2N=C1)O)N=NC3=CC4=C(C=C3)C=C(C=C4)S(=O)(=O)O)S(=O)(=O)O + COc1cc2c(Oc3ccc(NC(=O)C4(C(=O)Nc5ccc(F)cc5)CC4)cc3F)ccnc2cc1OCCCN1CCOCC1 [Foretinib] (partner 0.25 µM)
# In short: as §1
# AT-7519 + Pictilisib = compound: O=C(NC1CCNCC1)c1n[nH]cc1NC(=O)c1c(Cl)cccc1Cl [AT-7519] + CS(=O)(=O)N1CCN(Cc2cc3nc(-c4cccc5[nH]ncc45)nc(N4CCOCC4)c3s2)CC1 [Pictilisib] (partner 1 µM)
# In short: as §1
# [3] = compound: C1=CC2=C(C=C(C(=C2N=C1)O)N=NC3=CC4=C(C=C3)C=C(C=C4)S(=O)(=O)O)S(=O)(=O)O + C[C@@H](Oc1cc(-c2cnn(C3CCNCC3)c2)cnc1N)c1c(Cl)ccc(F)c1Cl [Crizotinib] (partner 1 µM)
# In short: as §1
Cell Line,relative viability ([1]; first compound 0.08 µM),relative viability ([1]; first compound 0.253 µM),relative viability ([1]; first compound 0.8 µM),relative viability ([1]; first compound 2.53 µM),relative viability ([1]; first compound 8 µM),relative viability ([2]; first compound 0.08 µM),relative viability ([2]; first compound 0.253 µM),relative viability ([2]; first compound 0.8 µM),relative viability ([2]; first compound 2.53 µM),relative viability ([2]; first compound 8 µM),relative viability (AT-7519 + Pictilisib; first compound 0.01 µM),relative viability (AT-7519 + Pictilisib; first compound 0.03162 µM),relative viability (AT-7519 + Pictilisib; first compound 0.3162 µM),relative viability (AT-7519 + Pictilisib; first compound 1 µM),relative viability ([3]; first compound 0.08 µM),relative viability ([3]; first compound 0.253 µM),relative viability ([3]; first compound 0.8 µM),relative viability ([3]; first compound 2.53 µM),relative viability ([3]; first compound 8 µM)
NCI-H1993,0.757,0.694,0.653,0.702,0.717,0.766,0.78,0.825,0.734,0.643,0.783,0.76,0.929,0.606,0.866,0.904,0.864,0.797,0.896
NCI-H322M,0.905,0.925,0.845,0.916,0.99,1.1,0.989,0.919,0.89,0.95,0.565,0.495,0.473,0.439,1.12,0.892,0.904,1.07,1.02
NCI-H838,1.17,0.996,0.979,0.975,1.02,1.13,1.06,1.04,1.03,1.04,0.567,0.427,0.145,0.103,0.992,0.734,0.848,0.943,0.811
HARA,1.01,1.08,0.937,1.06,0.957,1.23,0.896,0.914,0.901,0.821,0.361,0.354,0.554,0.279,1.1,1.01,1.03,1.02,1.04
NCI-H1792,0.667,0.48,0.619,0.592,0.565,–,–,–,–,–,0.196,0.218,0.234,0.252,1.15,0.947,0.933,1.02,0.961
ChaGo-K-1,–,–,–,–,–,0.953,0.986,0.855,1.02,0.927,0.589,1.16,0.536,0.547,1.12,1.16,1.13,1.21,1.12
HCC-44,0.708,0.66,0.664,0.702,0.698,–,–,–,–,–,0.588,0.625,0.552,0.688,0.935,0.767,0.807,0.819,0.859
NCI-H1793,1.29,0.678,–,1.04,0.964,0.539,0.606,0.674,0.749,0.71,0.357,0.255,0.31,0.161,–,–,–,–,–
NCI-H1395,1.11,1.18,1.34,1,1.18,0.965,0.988,0.956,1.03,1,0.662,0.523,0.51,0.471,–,–,–,–,–
SW 900,–,–,–,–,–,0.806,0.9,0.912,0.786,0.741,–,–,–,–,–,–,–,–,–
